We go through 13 compounds from patent US6447748B1, “Benzamide compounds for cancer imaging and therapy” (Research Corporation Technologies, Inc., priority 1993, dated 2002).

Series [1] deals with MCF-7 breast cancer cells. The arrangement: species or system human. The note with it: read-out: Kd, saturable binding. An excerpt: The cells were adherent and split weekly in a 1:20 ratio using trypsin/EDTA (GIBCO).
In series [2] the target is T1, Sigma-1 (Cavia porcellus, UniProt Q60492). Nature of the series: Sigma-1 binding assay, guinea pig brain membranes, [3H]-(+)-pentazocine (Example 9).
T1 sequence (Q60492 whole entry): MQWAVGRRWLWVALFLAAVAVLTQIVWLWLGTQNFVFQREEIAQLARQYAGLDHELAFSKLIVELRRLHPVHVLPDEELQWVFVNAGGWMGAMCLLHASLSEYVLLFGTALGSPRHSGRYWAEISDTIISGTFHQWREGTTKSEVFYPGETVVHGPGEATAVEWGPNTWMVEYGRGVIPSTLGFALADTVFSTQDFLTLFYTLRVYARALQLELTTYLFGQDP
Method: A plasma membrane-mitochondrial (P2) membrane fraction was prepared from frozen guinea pig brains (Pel-Freeze, Rogers, Ak.), minus cerebellum. The brain tissue was thawed slowly before homogenization. A crude P2 membrane fraction was also prepared from the livers of Sprague-Dawley rats (150-220 g, Taconic Farms). The animals were decapitated and their livers were minced and homogenized. The tissue homogenization was carried out at 4° C. in 10 mM tris-HCl/0.32 M sucrose, pH=7.4 using 10 motor-driven strokes in a Potter-Elvehjem Teflon glass homogenizer. The crude homogenate was centrifuged for 10 min at 1000 g and the crude nuclear (P1) pellet was discarded. Supernatants were centrifuged at 31000×g for 15 min to yield a plasma membrane-mitochondrial pellet (P2). This pellet was resuspended in 3 ml/g in 10 mM tris-HCl, pH 7.4 and used for binding studies. Protein concentrations were determined by the method of Lowry.
Filters were washed twice with ice-cold 10 mM tris-HCL. Prior to use, filters were soaked in 0.5% polyethyleneimine for about 30 min at 25° C.
(§4) When the assay was terminated, the membranes were filtered and the filtrate washed twice as above. The radioactivity was counted in Ecoscint (National Diagnostics, Manville, N.J.) after an overnight extraction of counts.
(§5) Ki values were calculated from the IC50 values using Cheng-Prusoff equation.
In series [3] the target is T2, Sigma-2 (Rattus norvegicus, UniProt Q5U3Y7).
T2 sequence (Q5U3Y7 1-176): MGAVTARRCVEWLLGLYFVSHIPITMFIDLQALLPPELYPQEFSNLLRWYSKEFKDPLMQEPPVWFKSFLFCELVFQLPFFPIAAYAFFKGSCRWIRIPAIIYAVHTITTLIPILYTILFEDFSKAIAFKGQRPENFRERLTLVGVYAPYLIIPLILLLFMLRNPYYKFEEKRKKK
Nature of the series: Sigma-2 binding assay, rat liver membranes, [3H]DTG + dextrallorphan (Example 9).

Series [4] concerns human adenocarcinoma xenograft (NCI-838). The series is described as follows: Scintigraphic imaging of nude mouse bearing human lung adenocarcinoma xenograft. Format: in vivo, Balb/c nu/nu mice. As to conditions: 24 and 30 hrs. post-injection. The method, then:
(§1) A2058 cells, derived from a brain metastasis of human malignant melanoma (Todaro et al. 1980 Proc. Natl. Acad. Sci. USA 77: 5258) were obtained from the National Institutes of Health. A human lung adenocarcinoma cell line, NCI-838, was obtained from the National Cancer Institute. These cells were grown in DMEM2 medium (Dulbecco's modification of Eagle's medium, […]) supplemented with 10% fetal bovine serum and 0.03% L-glutamine.
Balb/c nu/nu mice (17-22 g) bearing human melanoma or non-small cell lung carcinoma xenograft tumors were injected intravenously with 0.2 ml of saline solution containing [^131I]PAB or [^131I]DAB (150-200 μCi). The animals were anesthetized with ketamine containing rompun before the imaging studies. […]
(Xenograft models place foreign cells or tissue in a host animal.)

Series [5] deals with human melanoma xenograft tumors (A2058). The series is described as follows: Scintigraphic imaging of nude mice bearing human melanoma xenografts. The series is classed as in vivo, Balb/c nu/nu mice. The method, then:
as §1
Balb/c nu/nu mice (17-22 g) bearing human melanoma or non-small cell lung carcinoma xenograft tumors were injected intravenously with 0.2 ml of saline solution containing [^131I]PAB or [^131I]DAB (150-200 μCi). The animals were anesthetized with ketamine containing rompun before the imaging studies. The images were obtained using a scintigraphic camera with a pin-hole collimator at 6 and 24 hr. post injection.

The target of a further series is PCP. Nature of the series: PCP binding, rat brain, [3H]TCP. As to conditions: Table 2 of Example 9.
Series [6] has as its target MUSC (muscarinic receptors). The series is classed as binding. As to conditions: read-out: Ki MUSC RAT BRAIN [3H]QNB.
The target of the next series is T3, DOPAMINE D-2 (Rattus norvegicus, UniProt P61169).
T3 construct: from tissue
T3 sequence (P61169 whole entry): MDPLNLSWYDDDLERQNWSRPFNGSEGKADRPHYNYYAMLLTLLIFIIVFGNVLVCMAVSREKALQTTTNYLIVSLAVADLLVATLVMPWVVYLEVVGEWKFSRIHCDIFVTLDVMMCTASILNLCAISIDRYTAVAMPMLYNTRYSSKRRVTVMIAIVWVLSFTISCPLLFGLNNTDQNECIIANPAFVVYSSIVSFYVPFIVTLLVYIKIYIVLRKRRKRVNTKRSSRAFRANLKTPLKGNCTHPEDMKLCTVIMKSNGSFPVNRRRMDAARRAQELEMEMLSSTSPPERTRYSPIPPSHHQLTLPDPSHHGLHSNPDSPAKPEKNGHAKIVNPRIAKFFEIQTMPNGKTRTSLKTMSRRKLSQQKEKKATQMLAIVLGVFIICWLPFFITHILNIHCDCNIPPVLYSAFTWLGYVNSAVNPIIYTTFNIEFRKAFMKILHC
The series is described as follows: Dopamine D-2 binding, rat brain, [3H]-(−)-sulpiride. The note with it: Table 2 of Example 9.

For series [7], the target named is T4, Sigma-2, rat C6 glioma cells (Rattus norvegicus, UniProt Q5U3Y7).
T4 sequence (Q5U3Y7 1-176): T2 sequence (Q5U3Y7 1-176)
The series is described as follows: Sigma-2 binding assay, C6 glioma cell homogenates, [3H]DTG + dextrallorphan (Example 8). The note with it: read-out: Ki Sigma-2 C6 Glioma Cells; 3 nM [3H]DTG, 1 micromolar dextrallorphan.
Method: (§6) Filters were washed twice with ice-cold buffer. Prior to use, filters were soaked in 0.5% polyethyleneimine for about 30 min at 25° C.
as §4, §5

For series [8], the target named is T1, Sigma-1. Nature of the series: Sigma-1 binding assay, guinea pig brain membranes, [3H]-(+)-pentazocine (Example 8). The note with it: read-out: Ki Sigma-1 Guinea Pig Brain; 3 nM [3H]-(+)-pentazocine, 60 min at 37° C.
Method: (§7) A crude P2 membrane fraction was also prepared from the livers of rat Sprague-Dawley rats (150-220 g, Taconic Farms) liver. The animals were decapitated and their livers were minced and homogenized. The tissue homogenization was carried out at 4° C. in ml/g tissue weight of 10 mM Tris-HCl/0.32 M sucrose, pH=7.4 using 10 motor-driven strokes in a Potter-Elvehjem Teflon glass homogenizer. The crude homogenate was centrifuged for 10 min at 1000 g and the crude nuclear (P1) pellet was discarded. Supernatants were centrifuged at 31000 g for 15 min to yield a plasma membrane-mitochondrial pellet (P2). This pellet was resuspended in 3 ml/g in 10 mM tris-HCl, pH 7.4 and used for binding studies. Protein concentrations were determined by the method of Lowry.
as §6, §4, §5
Series [9] concerns A2058 human malignant melanoma cells. Nature of the series: In vitro competitive binding of nonradioactive IPAB against [125I]PAB in A2058 cells. As to conditions: 37° C. for 5 hr., read-out: Ki, nonradioactive IPAB inhibiting binding of radioactive IPAB.
Method: These cells were grown in DMEM2 medium (Dulbecco's modification of Eagle's medium, EMEM) supplemented with 10% fetal bovine serum and 0.03% L-glutamine.
A2058 cells, grown as described above, were harvested with calcium and magnesium free phosphate buffer (0.1 M) containing 0.02% EDTA. Cells were washed twice with ice-cold RPMI 1640 medium (Gibco) without glutamine and resuspended in the same medium. Carrier-free [^125I]PAB (0.1 ml) was added to eight aliquots of 0.1 ml test A2058 cells (1.5×10^6 cells in suspension). To observe competitive binding by non-radioactive IPAB, varying concentrations of non-radioactive IPAB were added in a volume of 0.1 ml. Cells were incubated at 37° C. for 5 hr. after addition of radioactive and nonradioactive IPAB.
After incubation, cells were collected by centrifugation for 5 min and washed twice with RPMI 1640 medium. The radioactivity bound to cells was counted using a Packard Autogamma 5650 scintillation counter.
Data were analyzed with an INPLOT® iterative, non-linear least square curve fitting program.
In series [10] the target is T2, Sigma-2. The series is described as follows: Sigma-2 binding assay, rat liver membranes, [3H]DTG + dextrallorphan (Example 8). As to conditions: read-out: Ki Sigma-2 Rat Liver; 3 nM [3H]DTG, 1 micromolar dextrallorphan.
Method: as §7, §6, §4, §5
The target in series [11] is sigma sites labeled by 4-[125I]PEMP in guinea pig brain membranes. Format: binding. The note with it: read-out: Ki against 4-[125I]PEMP. The method, then:
(§2) Intact adherent cells were washed (2×1 mL) with 10 mM phosphate buffer (pH=7.2). […] Each data point represent an average of three values. The cells were incubated at 37° C. for 1 hr. and subsequently washed with phosphate buffer (10 mM; pH 7.2) (3×1 mL). The cells were then dissolved in 0.2 N NaOH (1.0 mL) and the activity counted on a Beckman (DP 5500) Gamma Counter. A similar procedure was repeated with 2-[^125I]BP with MCF-7, MDA-MB 231 and T47D breast cancer cells.
(§3) The affinity of compounds for sites labeled by 4-[^125I]PEMP was determined by homologous and heterologous in vitro competitive binding assays in intact MCF-7 breast cancer cells and guinea pig brain membranes labeled by 4-[^125I]PEMP. The assays were prepared according to the procedure described in Example 14.

Series [12] has as its system Sigma-1 sites, MCF-7 breast adenocarcinoma.
The target of series [13] is T5, sigma sites labeled by 4-[125I]BP in MCF-7 breast cancer cells (Homo sapiens, UniProt Q5BJF2).
T5 construct: Intact adherent cells were washed (2×1 mL) with 10 mM phosphate buffer; endogenous in cells; host or cells: intact adherent MCF-7 breast cancer cells
T5 sequence (Q5BJF2 whole entry): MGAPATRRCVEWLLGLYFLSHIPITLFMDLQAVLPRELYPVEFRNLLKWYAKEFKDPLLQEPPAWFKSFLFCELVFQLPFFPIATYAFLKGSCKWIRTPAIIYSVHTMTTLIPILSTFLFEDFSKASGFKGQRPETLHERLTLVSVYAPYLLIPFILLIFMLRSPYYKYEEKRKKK
The series is described as follows: Homologous and heterologous competition for 4-[125I]BP binding in intact MCF-7 cells. The note with it: 37° C. for 1 hr., unit printed in b378 only, not in the table.

Series [14] has as its target Sigma-1 sites, T47D breast ductal carcinoma.
The subject of series [15] is sites labeled by 4-[125I]PEMP in MCF-7 breast tumor cells. On the procedure:
as §2, §3

The mark [16] stands for this setting: read-out: Ki SIGMA-1 GUINEA PIG BRAIN [3H]-(+)-PENT, Table 2 of Example 9, 120 min at 25° C.
Where [17] appears, read: read-out: Ki SIGMA-2 RAT LIVER [3H]DTG + DEX, Table 2 of Example 9.

For orientation: Ki means the dissociation constant of the complex between target and ligand, obtained from inhibition or displacement.

Like-named read-outs stand apart in the source and are kept apart here. Bounds are passed on as bounds.

For `O=C(NC1CCN(Cc2ccccc2)CC1)c1ccc(I)cc1` [4-[^125I]BP, ^125I-(N-Benzylpiperidin-4-yl)-4-iodobenzamide], in series [1], the Kd was 26 nM.
As for `CN(CCc1ccc(Br)cc1)CCN1CCCCC1` [Br-PEMP, N-[2-(4-Bromophenyl)ethyl]-N-methyl-2-(1-piperidinyl)ethylamine], the inhibition constant Ki at Sigma-1 [2] was 6.27 nM; at Sigma-2 [3] it was 51.8 nM.
As for “^131I(2-Piperidinylaminoethyl)4-iodobenzamide [[^131I]PAB]”, the “visualization of implanted tumor, scintigraphic image” value in series [4] is on record as “easily visualized the implanted tumor”. In addition, the “detection in the tumor, scintigraphic image” value in [5] (6 and 24 hrs. post injection) is listed as “detected only within the tumor”. In series [5] (6 and 24 hrs. post-administration), the “uptake in the liver, scintigraphic image” value was “Little or no”.
As for `CN(CCc1ccc(I)cc1)CCN1CCCCC1` [4-IPEMP, N-[(4-I-iodophenyl)ethyl]-N-methyl-2-(1-piperidinyl)-ethylamine], the results for the Ki at Sigma-1 [2] and at Sigma-2 [3] were 7.02 nM and 52.6 nM, respectively.
As to `O=C(NC1CCN(Cc2ccccc2)CC1)c1ccccc1I` [2-IBP, (N-Benzylpiperidin-4-yl)-2-iodobenzamide], the Ki at PCP is > 100000 nM; in series [6] it was > 100000 nM; at Sigma-1 [2] (setting [16]), 1.64 ± 0.15 nM; at DOPAMINE D-2, 63.4 ± 10.8 nM; on Sigma-2 [3] (setting [17]), 29.6 ± 0.49 nM.
In the case of `O=C(NC1CCN(Cc2ccccc2)CC1)c1cccc(I)c1` [3-IBP, (N-Benzylpiperidin-4-yl)-3-iodobenzamide], the Ki at PCP is > 100000 nM; in series [6], > 100000 nM; at Sigma-1 [2] (setting [16]), 3.02 ± 1.06 nM; at DOPAMINE D-2, 24.8 ± 0.02 nM; on Sigma-2 [3] (setting [17]), 84.6 ± 2.5 nM.
For the compound `O=C(NCCN1CCCCC1)c1ccc(I)cc1` [IPAB, (2-Piperidinylaminoethyl)4-iodobenzamide], the Ki in series [7] was 130 nM; at Sigma-1 [8], 0.89 nM; in [9], 6.8 nM; at Sigma-2 [10], 24 nM.
Consider `CC(C)=CCN1CCC2(C)c3cc(O)ccc3CC1C2C` (single isomer, unassigned; (+)) [(+)-Pentazocine], for which the Ki in [11] was 35.9 nM. Besides, the “specific binding to sigma-1 sites” value in series [12] is given as “little or no specific binding”.
For `CCCN1CCC[C@H](c2cccc(O)c2)C1` [(+)-PPP], the Ki in series [13] is > 1000 nM.
As for `CC(C)=CCN1CC[C@]2(C)c3cc(O)ccc3C[C@H]1[C@H]2C` [[^3H] (+)-pentazocine], the Kd in series [14] (read-out: Kd1 Sigma-1) came to 6.62 nM; in [14] (read-out: Kd4 Sigma-1), 261 nM. Besides, the “specific binding to sigma-1 sites” value in [12] is reported as “No specific binding”.
For `O=C(NC1CCN(Cc2ccccc2)CC1)c1ccc(I)cc1` [4-IBP, (N-Benzylpiperidin-4-yl)-4-iodobenzamide], the Ki on PCP was > 100000 nM; in series [6] it was > 100000 nM; in series [13], 4.8 ± 2 nM; on DOPAMINE D-2, 382 ± 39 nM; at Sigma-2 [3] (setting [17]), 25.2 ± 1.28 nM.
As for `O=C(CCCN1CCC2(CC1)C(=O)NCN2c1ccccc1)c1ccc(F)cc1` [Spiperone], the Ki in [13] came to 247 ± 37 nM.
With `CN(CCc1ccc(Cl)c(Cl)c1)CCN1CCCC1` [BD1008], in [15], the “inhibition of specific binding of 4-[125I]PEMP” value was “high affinity, concentration-dependent inhibition of specific binding”. Also, the Ki in [11] stood at 5.6 nM.
